Results from US5369113A, “Certain 2,3-diphenyl-2-(1,2,4-oxadiazol-5-yl)tropanes useful as dopamide reuptake inhibitors” (NeuroSearch A/S, priority 1992, dated 1994).

Assays:
dopamine release = conditions: background statement; cited from earlier work
[1] = at every relevant dosing level tested
Description: The low intensity behavioural effects are here included into the locomotor and rearing syndrome.
The high intensity syndrome of stereotypy is here considered, if the behavioural repertoire of the rat becomes strongly restricted in variation and consists of the continuous repetition of one or a few items of behaviour.
The syndrome of stereotyped sniffing behaviour is thus performed continuously on only a small restricted area of the cage. […] During this stage of high intensity stereotypy all normal behavioural elements are absent including behaviour such as eating, drinking, grooming and normal explorative investigation of the environment. […] The rats are here usually sitting in a typical crouched posture in a corner of the cage. Backward locomotion may occasionally be observed.
The following rating scale is used for the high intensity stereotypy on the condition that the behavioural syndromes are as described above:
+=only stereotyped sniffing
++=stereotyped sniffing and episodic licking
+++=Continuous licking and/or biting gnawing

COC(=O)[C@H]1[C@@H](OC(=O)c2ccccc2)C[C@@H]2CC[C@H]1N2C [cocaine]
dopamine releasing properties (dopamine release): strong dopamine releasing properties

COC(=O)[C@@H]1[C@@H](c2ccc(F)cc2)C[C@@H]2CC[C@H]1N2C [trans isomer of Win 35,428, (1R,2R,3S)-2-carbomethoxy-3-(4-fluorophenyl)tropane]
side effects as measured by abnormal stereotyped behaviour [1]: essentially or totally devoid of side effects
